Drawing on ChEMBL document CHEMBL1123212 (J Med Chem, 1986), this text covers LD50 and ED50 for 18 compounds.

The nature of one series: in vivo. The conditions noted are these: rat, ip.
For series [1], the species on record is Rattus norvegicus. The series can be described thus: animal or person.
Description: In vivo inhibition of apomorphine induced stereotypy in rats.
The species entered for series [2] is Rattus norvegicus. The series can be described thus: animal or person. This is another data set of the same source.
Description: In vivo inhibition of apomorphine induced hyperactivity in rats.
In series [3] the test system is Rattus norvegicus. The series can be described thus: Compound was tested for anti-dopamine activity in vivo by its ability to inhibit apomorphine induced stereotypy in rat. In kind it is functional.
For series [4], the system named is Rattus norvegicus. The series can be described thus: Compound was tested for anti-dopamine activity in vivo by its ability to inhibit apomorphine induced hyperactivity in rat. In kind it is functional.

Description for in vivo: Compound was tested for its acute toxicity in rat after ip administration

On to `CCc1ccc(OC)c(C(=O)NC[C@@H]2CCCN2CC)c1O`, for which the LD50 in the series “in vivo” is 370 µmol/kg. Moreover, the ED50 was found to be 0.28 µmol/kg in the series listed under Rattus norvegicus [1] and 0.12 µmol/kg in the series filed under Rattus norvegicus [2].
For the compound `CCN1CCC[C@H]1CNC(=O)c1c(O)c(Br)cc(Cl)c1OC`, the results for the ED50 in the series filed under Rattus norvegicus [1] and in the series listed under Rattus norvegicus [2] were 1.35 µmol/kg and 0.95 µmol/kg, respectively.
The like results for `CCN1CCC[C@H]1CNC(=O)c1c(O)c(C)cc(Cl)c1OC` were, in that order, 1.32 µmol/kg and 0.74 µmol/kg.
As for `CCN1CCC[C@H]1CNC(=O)c1c(O)c(Cl)cc(Cl)c1OC` [RACLOPRIDE], in “in vivo”, the LD50 was found to be 660 µmol/kg. In addition, the ED50 in the series listed under Rattus norvegicus [1] was 1.7 µmol/kg; in the series listed under Rattus norvegicus [2], 0.13 µmol/kg.
Consider `O=C(CCCN1CCC(O)(c2ccc(Cl)cc2)CC1)c1ccc(F)cc1` [HALOPERIDOL], for which the 50% effective dose (ED50) was 0.27 µmol/kg in the series on Rattus norvegicus [3] and 0.29 µmol/kg in the series with Rattus norvegicus [4]. Besides, the LD50 in the series “in vivo” was 93 µmol/kg.
On to `CCN1CCC[C@H]1CNC(=O)c1cc(Br)cc(Br)c1O`, for which the ED50 in the series listed under Rattus norvegicus [1] is over 40 µmol/kg; in the series listed under Rattus norvegicus [2], 28 µmol/kg.
Regarding `CCN1CCC[C@H]1CNC(=O)c1c(O)c(Br)cc(F)c1OC`, the ED50 amounted to 0.42 µmol/kg in the series filed under Rattus norvegicus [1] and 0.16 µmol/kg in the series filed under Rattus norvegicus [2].
The like results for `CCN1CCC[C@@H]1CNC(=O)c1c(O)c(Cl)cc(Cl)c1OC` were, in that order, 32 µmol/kg and 1.07 µmol/kg.
The like results for `CCN1CCC[C@H]1CNC(=O)c1c(O)c(C)cc(C)c1OC` were, in that order, 3.1 µmol/kg and 1.86 µmol/kg.
As to `CCc1cc(Cl)c(O)c(C(=O)NC[C@@H]2CCCN2CC)c1OC`, the ED50 in the series listed under Rattus norvegicus [1] amounted to 1.51 µmol/kg; in the series filed under Rattus norvegicus [2], 2.5 µmol/kg.
The like results for `CCN1CCC[C@H]1CNC(=O)c1cc(Br)cc(Br)c1OC` were, in that order, 2.69 µmol/kg and 0.66 µmol/kg.
With `CCc1cc(Br)c(O)c(C(=O)NC[C@@H]2CCCN2CC)c1OC`, the ED50 is 1.45 µmol/kg in the series filed under Rattus norvegicus [1] and 0.87 µmol/kg in the series filed under Rattus norvegicus [2].
In the case of `CCc1cc(Br)c(OC)c(C(=O)NC[C@@H]2CCCN2CC)c1O`, the LD50 in “in vivo” is 320 µmol/kg. Moreover, the values for the ED50 in the series listed under Rattus norvegicus [1] and in the series listed under Rattus norvegicus [2] were 0.47 µmol/kg and 0.085 µmol/kg, respectively.
The like results for `CCc1cc(CC)c(OC)c(C(=O)NC[C@@H]2CCCN2CC)c1O` were, in that order, 530 µmol/kg, 0.46 µmol/kg and 0.076 µmol/kg.
Compound `CCc1cc(Cl)c(OC)c(C(=O)NC[C@@H]2CCCN2CC)c1O` [ETICLOPRIDE] returned an LD50 in “in vivo” of 330 µmol/kg. Further, the ED50 stood at 0.19 µmol/kg in the series filed under Rattus norvegicus [1] and 0.032 µmol/kg in the series listed under Rattus norvegicus [2].
The like results for `CCN1CCC[C@H]1CNC(=O)c1c(O)c(Br)cc(Br)c1OC` were, in that order, 450 µmol/kg, 1.48 µmol/kg and 0.65 µmol/kg.
With `CCc1cc(F)c(OC)c(C(=O)NC[C@@H]2CCCN2CC)c1O`, the ED50 in the series filed under Rattus norvegicus [1] was determined as 0.31 µmol/kg; in the series listed under Rattus norvegicus [2], 0.065 µmol/kg.
The like results for `CCCc1cc(Cl)c(OC)c(C(=O)NC[C@@H]2CCCN2CC)c1O` were, in that order, 0.35 µmol/kg and 0.1 µmol/kg.

As usually defined, the LD50 is the dose at which mortality reaches 50%. Read a high LD50 as lower toxicity. Broadly, the ED50 is the dose at which the effect has come halfway, by size or by number of responders. A lower ED50 goes with greater potency.
